From US8492515B2 (priority 2008, dated 2013)
Bridge positions count the residues as written; N and C are the ends. Square brackets hold non-standard residues; d marks the D form. Ends that are not written are not given here. I, II: the chains in the order shown. Ac6c = NC1(C(=O)O)CCCCC1; Dab = NCC[C@H](N)C(=O)O

Tests used:
P. aeruginosa 10 = test system: P. aeruginosa 10
From the text: (§1) To investigate the activity of the A3-APO metabolites, Chex1-Arg20 single chain unit and an Arg7-Arg20 common cleavage fragment were synthesized and studied for their ability to kill Enterobacteriaceae strains in undiluted Muller-Hinton broth, a true measure of potential clinical viability (Otvos et al., 2005. J. Med. Chem. 48: 5349-5359). The peptides of the invention were made on a CEM Liberty automated synthesizer with standard Fmoc-chemistry. The peptides were detached from the resin with the carboxyl terminus of the C-terminal Arg residue being in the form of an amino amide, —C(O)—NH2 (“Chex1-Arg20-NH2” and “Arg7-Arg20-NH2”), while still in the microwave chamber, and were purified by RP-HPLC. […] The biological studies carried out on chemically synthesized peptides in this example and succeeding examples were carried out on the C-terminal modified versions of the peptides wherein the C-terminal carboxylic acid function was in the form of an amide, —C(O)—NH2. Antibacterial growth inhibition assays were performed using sterile 96-well polypropylene plates (Nunc F96 microtiter plates) in a final volume of 100 μL as described previously (Cudic et al., 2002. Peptides 23: 271-283). The cell concentrations were estimated by measuring the ultraviolet absorbance at 600 nm and applying the formula cfu/mL=A600(3.8×10^8), where cfu is the number of colony-forming units. Briefly, 50 μL of a suspension of midlogarithmic phase bacterial cultures diluted to 5×10^5 cfu/mL in Muller-Hinton broth (MHB) was added to 50 μL of serially diluted peptides also dissolved in MHB. The final peptide concentration was 128 μg/mL. Cultures were then incubated at 37° C., 5% CO2 for 16-20 h without shaking, and growth inhibition was measured by recording the absorbance at 600 nm using a microplate reader. […] The minimal inhibitory concentration indicates the lowest peptide dose where no visible bacterial growth is detected after 16 hours incubation in full strength Muller-Hinton broth at 37° C. The peptide Chex-pyrr-Dap dimer was also included in the study. […] (Cudic et al., 2002. Peptides 23: 271-283).
(§2) Following the protocol of Example 2, minimal inhibitory concentrations of the Chex1-Arg20 peptide against selected bacteria was determined. […] A3-APO was included for comparison.

E. coli SOTE40 = test system: E. coli SOTE40
From the text: as §1, §2

E. coli HK179 [1] = test system: E. coli HK179
From the text: as §1, §2

K. pneumoniae K6 = test system: K. pneumoniae K6
From the text: as §1, §2

[2] = test system: S. saprophyticus ATCC 15305
From the text: as §1, §2

E. coli 045-849 = test system: E. coli 045-849
From the text: as §1, §2

E. coli HK131 = test system: E. coli HK131
From the text: as §1, §2

E. coli SEQ102 [3] = test system: E. coli SEQ102
From the text: as §1, §2

K. pneumoniae HK 186 = test system: K. pneumoniae HK 186
From the text: as §1, §2

K. pneumoniae HK 127 = test system: K. pneumoniae HK 127
From the text: as §1, §2

E. coli 5770 = test system: E. coli 5770
From the text: as §1, §2

P. aeruginosa ATCC 39329 = test system: P. aeruginosa ATCC 39329
From the text: as §1, §2

S. typhimurium G10215 [4] = test system: S. typhimurium G10215
From the text: as §1, §2

[5] = test system: A. baumannii ATCC BBA-1605
From the text: as §1, §2

K. pneumoniae 012-3132 = test system: K. pneumoniae 012-3132
From the text: as §1, §2

K. pneumoniae HK 123 = test system: K. pneumoniae HK 123
From the text: as §1, §2

[6] = test system: S. typhimurium ATCC 14028
From the text: as §1, §2

S. typhimurium S5 = test system: S. typhimurium S5
From the text: as §1, §2

E. coli HK179 [7] = settings: HK179, 16 h
From the text: as §1

E. coli SEQ102 [8] = settings: SEQ102, 16 h
From the text: as §1

S. typhimurium G10215 [9] = settings: G10215, 16 h
From the text: as §1

K. pneumoniae HK123 = settings: HK123, 16 h
From the text: as §1

in vitro [10] = assay type: in vitro ADME; settings: mouse, serum
Procedure: The metabolic stability of peptide A3-APO in full serum in vitro was examined in peptide degredation studies in blood derived media. A3-APO was added to undiluted mouse serum preparation and was incubated in the full serum for 30 minutes. The serum proteins were precipitated and the serum was submitted for mass spectroscopic analysis.

in vitro [11] = assay type: in vitro ADME, mouse
Procedure: The stability of peptide A3-APO was analyzed in commercially available pooled mouse serum diluted to 25% with distilled water as follows. It has been shown that dilution of serum linearly reduces the degradation rate of peptides without changing any other proteolytic parameters (Powell et al., 1992. J. Pharm. Sci. 81: 731-735). […] Specifically, ninety μL of pooled sterile mouse serum (Equitech-Bio, Kerrville, Tex.) was added to 10 μL of peptide A3-APO dissolved in distilled water at 1.28 mg/mL concentration. After incubation periods of 0, 15, 30, 60 or 90, 120 and 240 min at 37° C., 20 μL 15% trichloracetic acid (TCA) was added, the mixture stored at 4° C. for 20 minutes, and centrifuged at 13,000 rpm. The supernatant was submitted to determination of remaining amount of unmodified A3-APO peptide by MS and RP-HPLC.

I: [Ac6c]RPDKPRPYLPRPRPPRPVR[Dab] / II: [Ac6c]RPDKPRPYLPRPRPPRPVR (amide I:21-II:C (inferred)) [Peptide A3-APO, reference compound]
2 mg/L: MIC, E. coli HK179 (E. coli HK179 [1]) | MIC, S. saprophyticus ATCC 15305 [2] | MIC, E. coli SEQ102 (E. coli SEQ102 [3]) | MIC, E. coli 5770 (E. coli 5770) | MIC, K. pneumoniae 012-3132 (K. pneumoniae 012-3132)
~3.83 h: half-life at 0.128 mg/mL (in vitro [11]; 25% pooled mouse serum, 37° C.)
8 mg/L: MIC, P. aeruginosa 10 (P. aeruginosa 10) | MIC, E. coli SOTE40 (E. coli SOTE40) | MIC, K. pneumoniae HK 186 (K. pneumoniae HK 186) | MIC, K. pneumoniae HK 127 (K. pneumoniae HK 127) | MIC, P. aeruginosa ATCC 39329 (P. aeruginosa ATCC 39329) | MIC, S. typhimurium ATCC 14028 [6] | MIC, S. typhimurium S5 (S. typhimurium S5) | MIC against E. coli HK179 (E. coli HK179 [7])
almost half: original peptide amount remaining intact within the first hour (in vitro [11]; serum)
16 mg/L: MIC, A. baumannii ATCC BBA-1605 [5] | MIC against E. coli SEQ102 (E. coli SEQ102 [8]) | MIC against S. typhimurium G10215 (S. typhimurium G10215 [9]) | MIC against K. pneumoniae HK123 (K. pneumoniae HK123)
4 mg/L: MIC, K. pneumoniae K6 (K. pneumoniae K6) | MIC, E. coli 045-849 (E. coli 045-849) | MIC, E. coli HK131 (E. coli HK131) | MIC, S. typhimurium G10215 (S. typhimurium G10215 [4]) | MIC, K. pneumoniae HK 123 (K. pneumoniae HK 123)
~35%: metabolised at 0.5 h (in vitro [10])
